From patent EP2285386B1, “Use of ribose in the treatment of restless legs syndrome” (RiboCor, Inc., priority 2008, dated 2009)
Where two headings read alike, the source gives them in different places.

Assays:
[1] = system: two familial males with RLS; experiment: Restless Legs Syndrome case study: oral D-ribose at three dosing regimens, symptom diary; format: in vivo, human; settings: three weeks
Excerpt: We present a report on two familial males with RLS in which the supplementation of D-ribose produced a benefit in lessening the occurrence and severity of their daily symptoms. Both affected male individuals were from a positive family prevalence, three generations carrying the diagnosis of RLS. These males involved the latter two generations, parent and child, respectively. Both men had no underlying medical conditions. Their symptoms of RLS date back for decades and presently have progressed to the moderate to severe discomfort stage, mainly experienced during sedentary periods throughout the day with exacerbation of symptoms during nocturnal sleep.
Both individuals were introduced to D-ribose. To evaluate any potential benefits of D-ribose in RLS, each individual orally consumed D-ribose (five grams per dose) daily at different trial dosing regimens. Each trial dosing regimen lasted for three weeks with a two week interval washout between dosing regimens. The initial regimen involved a single dose of oral D- ribose consumed only at breakfast. The second dosing regimen involved consumption of oral D-ribose at breakfast and lunch. In the last dosing regiment, oral D-ribose was taken with all meals, breakfast, lunch and dinner. A diary pertaining to the documentation and severity of RLS symptoms was compiled.
The two week washout period between stages was designed to observe any return or worsening of their symptoms. […] Following completion of all dosing regimens of oral D-ribose and with the final wash out period, both males elected to re-start oral dosing of D-ribose at 5 grams/doses three times a day.

[2] = human, in vivo, iv, cited from earlier work
[3] = second regimen: oral, five grams at breakfast and lunch

In the case of `O=C[C@H](O)[C@H](O)[C@H](O)CO` [D-Ribose], the energy and fatigue ([1]; initial regimen: oral, five grams single dose at breakfast) is reported as “general feeling of more energy and less fatigue”, the “leg twitching events and the urge to move during the day” value [1, 3] is reported as “reduced for one of the subjects and rarely present in the other” and the “unpleasant sensations during the night” value [1, 3] is reported as “Both still experienced the unpleasant sensations during the night”. For the same compound, the “D-Ribose levels in the serum” value ([2]; 60 mg/kg) was “approximately 25 mg/dl”, the “half-life of D-Ribose in the serum” value ([2]; 60 mg/kg) was 11 min and the “D-Ribose levels in the serum” value ([2]; 100 mg/kg) was “approximately 25 mg/dl”. The “half-life of D-Ribose in the serum” value ([2]; 100 mg/kg) was 16 min, the serum level ([2]; 222.2 mg/kg) was ≤ 86 mg/dL and the serum levels [2] was ≤ 60 mg/dL.
